Assay results: patent publication US12325697B2 (Nimbus Clio, Inc., priority 2021, dated 2025)

Legend:
[1] = target: Recombinant human Cbl-b (aa 36-427) (Homo sapiens (Human), UniProt Q13191); assay: Cbl-b Biochemical Assay (TR-FRET); settings: read-out: TR-FRET hCbl-b IC50
Outline: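 Two-step TR-FRET: 6 nM biotinylated Cbl-b preincubated 30-60 min with compound, then 60 min at RT with 1-2.5 nM Src-Zap70 and 0.5 mM ATP in HEPES pH 7.0 buffer, 1% DMSO. Stopped with 5 mM EDTA plus 100 nM UBE2D2-Ub-FL-BODIPY and 1 nM streptavidin-Tb, 60 min; 520 nm signal; IC50 from 4-parameter fit.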

[2] = target: Recombinant human c-Cbl (aa 47-435) (Homo sapiens (Human), UniProt P22681); assay: c-Cbl Biochemical Assay (TR-FRET)
Recombinant human c-Cbl (aa 47-435), sequence (P22681 47-435): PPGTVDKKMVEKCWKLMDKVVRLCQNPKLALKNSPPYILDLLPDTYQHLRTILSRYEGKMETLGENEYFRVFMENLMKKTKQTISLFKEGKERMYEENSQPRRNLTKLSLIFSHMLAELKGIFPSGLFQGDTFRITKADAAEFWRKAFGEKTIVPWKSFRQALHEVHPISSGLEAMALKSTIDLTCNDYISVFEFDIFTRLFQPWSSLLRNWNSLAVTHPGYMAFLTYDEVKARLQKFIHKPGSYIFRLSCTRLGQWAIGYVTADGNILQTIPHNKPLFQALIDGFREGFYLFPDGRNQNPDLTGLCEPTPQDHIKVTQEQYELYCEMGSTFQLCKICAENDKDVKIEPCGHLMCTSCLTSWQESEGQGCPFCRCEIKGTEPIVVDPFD
Outline: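 Biotinylated c-Cbl (6 nM) preincubated 30 min RT with compound, then reacted 60-90 min with Src-Zap70 (2.5-10 nM) and 0.5 mM ATP, pH 7.0 HEPES buffer. Stopped with EDTA; 100 nM Bodipy-ubiquitinated UBE2D2 binding read by TR-FRET after 60 min; IC50 from 4-parameter fit.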

Recombinant human Cbl-b (aa 36-427), sequence (Q13191 36-427): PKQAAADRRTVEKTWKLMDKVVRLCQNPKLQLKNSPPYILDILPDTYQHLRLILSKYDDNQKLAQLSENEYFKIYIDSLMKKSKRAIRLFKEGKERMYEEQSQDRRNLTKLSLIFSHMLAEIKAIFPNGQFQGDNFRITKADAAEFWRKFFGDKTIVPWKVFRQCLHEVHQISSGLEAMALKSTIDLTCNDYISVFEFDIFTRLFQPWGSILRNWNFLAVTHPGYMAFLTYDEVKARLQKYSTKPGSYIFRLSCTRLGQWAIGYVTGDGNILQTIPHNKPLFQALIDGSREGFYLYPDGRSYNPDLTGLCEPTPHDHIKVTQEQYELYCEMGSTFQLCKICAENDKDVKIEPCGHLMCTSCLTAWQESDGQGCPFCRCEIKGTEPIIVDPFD

Row | Structure (SMILES) | IC50 [1] [nM] | IC50 [2] [nM]
1 | Cn1cnnc1-c1cc(F)ccc1-c1cc(C2CC2)nc(N2Cc3c(F)cc(CO)cc3C2=O)c1 [AMI-1, 2-{6-Cyclopropyl-4-[4-fluoro-2-(4-methyl-1,2,4-triazol-3-yl)phenyl]pyridin-2-yl}-4-fluoro-6-(hydroxymethyl)-3H-isoindol-1-one] | ≤ 200 | ≤ 200
2 | CC(NCC1CC1)c1ccc2c(c1)C(=O)N(c1cc(-c3ccc(C#N)cc3-c3nncn3C)cc(C3CC3)n1)C2 (centres unmarked) [AJI-1, 4-(2-Cyclopropyl-6-(6-(1-((cyclopropylmethyl)amino)ethyl)-1-oxoisoindolin-2-yl)pyridin-4-yl)-3-(4-methyl-4H-1,2,4-triazol-3-yl)benzonitrile] | ≤ 200 | ≤ 200
3 | Cn1cnnc1-c1cc(C#N)ccc1-c1cc(C2CC2)nc(N2Cc3ccc(CNCC4CCCC4)cc3C2=O)c1 [AIG-1, 4-[2-(6-{[(Cyclopentylmethyl)amino]methyl}-1-oxo-3H-isoindol-2-yl)-6-cyclopropylpyridin-4-yl]-3-(4-methyl-1,2,4-triazol-3-yl)benzonitrile] | ≤ 200 | ≤ 200
4 | Cn1cnnc1-c1cc(C#N)ccc1-c1cc(C2CC2)nc(N2Cc3c(F)cc(CN4CC[C@H]5OCC[C@H]54)cc3C2=O)c1 (single isomer, unassigned) [ANH-1] | ≤ 200 | ≤ 200
5 | C[C@H](NCC1CC1)c1ccc2c(c1)C(=O)N(c1cc(-c3ccc(C#N)cc3-c3nncn3C)cc(C3CC3)n1)C2 [AJK-1, (S)-4-(2-Cyclopropyl-6-(6-(1-((cyclopropylmethyl)amino)ethyl)-1-oxoisoindolin-2-yl)pyridin-4-yl)-3-(4-methyl-4H-1,2,4-triazol-3-yl)benzonitrile] | ≤ 200 | ≤ 200
6 | COC[C@@H](C)NCc1cc(F)c2c(c1)C(=O)N(c1cc(-c3ccc(C#N)cc3-c3nncn3C)cc(C3CC3)c1)C2 [ALG-3, 3′-cyclopropyl-5′-[4-fluoro-6-({[(2R)-1-methoxypropan-2-yl]amino}methyl)-1-oxo-3H-isoindol-2-yl]-2-(4-methyl-1,2,4-triazol-3-yl)-[1,1′-biphenyl]-4-carbonitrile] | ≤ 200 | ≤ 200
7 | CCOc1cc(-c2ccc(C#N)cc2-c2nncn2C)cc(N2Cc3ccc(CO)cc3C2=O)n1 [AKX-1, 4-{2-Ethoxy-6-[6-(hydroxymethyl)-1-oxo-3H-isoindol-2-yl]pyridin-4-yl}-3-(4-methyl-1,2,4-triazol-3-yl)benzonitrile] | ≤ 200 | 200 to 1000
8 | CCOc1cc(-c2ccc(F)cc2-c2nncn2C)cc(N2Cc3c(cc(COCCO)cc3C(F)(F)F)C2=O)n1 [AHQ-4, 2-(6-Ethoxy-4-(4-fluoro-2-(4-methyl-4H-1,2,4-triazol-3-yl)phenyl)pyridin-2-yl)-6-((2-hydroxyethoxy)methyl)-4-(trifluoromethyl)isoindolin-1-one] | ≤ 200 | ≤ 200
9 | Cn1cnnc1-c1cc(C#N)ccc1-c1cc(C2CC2)nc(N2Cc3ccc(CNCC4CC4)cc3C2=O)c1 [AIB-2, 4-(2-Cyclopropyl-6-(6-(((cyclopropylmethyl)amino)methyl)-1-oxoisoindolin-2-yl)pyridin-4-yl)-3-(4-methyl-4H-1,2,4-triazol-3-yl)benzonitrile] | ≤ 200 | ≤ 200
10 | CCOc1cc(-c2ccc(Cl)cc2-c2nncn2C)cc(N2Cc3c(cc(CNCC4(O)CCC4)cc3C(F)(F)F)C2=O)n1 [AHW-1, 2-{4-[4-Chloro-2-(4-methyl-1,2,4-triazol-3-yl)phenyl]-6-ethoxypyridin-2-yl}-6-({[(1-hydroxycyclobutyl)methyl]amino}methyl)-4-(trifluoromethyl)-3H-isoindol-1-one] | ≤ 200 | ≤ 200
11 | CN(Cc1ccc2c(c1)C(=O)N(c1cc(-c3ccc(C#N)cc3-c3nncn3C)cc(C3CC3)n1)C2)CC1CCC1 [AMF-1, 4-[2-(6-{[(cyclobutylmethyl)(methyl)amino]methyl}-1-oxo-3H-isoindol-2-yl)-6-cyclopropylpyridin-4-yl]-3-(4-methyl-1,2,4-triazol-3-yl)benzonitrile] | ≤ 200 | ≤ 200
12 | CCC1(NCc2cc3c(c(C(F)(F)F)c2)CN(c2cc(-c4ccc(C#N)cc4-c4nncn4C)cc(C4CC4)n2)C3=O)CC1 [AKU-2, 4-[2-Cyclopropyl-6-(6-{1[(1-ethylcyclopropyl)amino]methyl}-1-oxo-4-(trifluoromethyl)-3H-isoindol-2-yl)pyridin-4-yl]-3-(4-methyl-1,2,4-triazol-3-yl)benzonitrile] | ≤ 200 | ≤ 200
13 | Cn1cnnc1-c1cc(C#N)ccc1-c1cc(C2CC2)nc(N2Cc3cnc(CO)cc3C2=O)c1 [ALE-7, 4-{2-Cyclopropyl-6-[6-(hydroxymethyl)-1-oxo-3H-pyrrolo[3,4-c]pyridin-2-yl]pyridin-4-yl}-3-(4-methyl-1,2,4-triazol-3-yl)benzonitrile] | 200 to 1000 | ≤ 200
14 | Cn1cnnc1-c1cc(C#N)ccc1-c1cc(C2CC2)nc(N2Cc3ccc(CNCC4CCC4)cc3C2=O)c1 [AIA-2, 4-[2-(6-{[(Cyclobutylmethyl)amino]methyl}-1-oxo-3H-isoindol-2-yl)-6-cyclopropylpyridin-4-yl]-3-(4-methyl-1,2,4-triazol-3-yl)benzonitrile] | ≤ 200 | ≤ 200
15 | CCOc1cc(-c2ccc(F)cc2-c2nncn2C)cc(N2Cc3c(OC)cc(CO)cc3C2=O)n1 [AJC-1, 2-(6-Ethoxy-4-(4-fluoro-2-(4-methyl-4H-1,2,4-triazol-3-yl)phenyl)pyridin-2-yl)-6-(hydroxymethyl)-4-methoxyisoindolin-1-one] | ≤ 200 | ≤ 200
16 | CCOc1cc(-c2ccc(C#N)cc2-c2nncn2C)cc(N2Cc3ccc(CNCC4(F)CCC4)cc3C2=O)n1 [AKJ-1, 4-{2-Ethoxy-6-[6-({[(1-fluorocyclobutyl)methyl]amino}methyl)-1-oxo-3H-isoindol-2-yl]pyridin-4-yl}-3-(4-methyl-1,2,4-triazol-3-yl)benzonitrile] | ≤ 200 | ≤ 200
17 | Cn1cnnc1-c1cc(C#N)ccc1-c1cc(C2CC2)nc(N2Cc3c(cc(COCC4(O)CCC4)cc3C(F)(F)F)C2=O)c1 [AHP-1, 4-(2-Cyclopropyl-6-(6-(((1-hydroxycyclobutyl)methoxy)methyl)-1-oxo-4-(trifluoromethyl)isoindolin-2-yl)pyridin-4-yl)-3-(4-methyl-4H-1,2,4-triazol-3-yl)benzonitrile] | ≤ 200 | ≤ 200
18 | Cn1cnnc1-c1cc(C#N)ccc1-c1cc(C2CC2)nc(N2Cc3ccc(CNC(C)(C)C4COC4)cc3C2=O)c1 [ANM-2, 4-{2-Cyclopropyl-6-[6-({[2-(oxetan-3-yl)propan-2-yl]amino}methyl)-1-oxo-3H-isoindol-2-yl]pyridin-4-yl}-3-(4-methyl-1,2,4-triazol-3-yl)benzonitrile] | ≤ 200 | ≤ 200
19 | Cn1cnnc1-c1cc(C#N)ccc1-c1cc(C2CC2)nc(N2Cc3ccc(CN[C@H]4CCOC4)cc3C2=O)c1 [ANQ-2, 4-[2-Cyclopropyl-6-(1-oxo-6-{[(3S)-oxolan-3-ylamino]methyl}-3H-isoindol-2-yl)pyridin-4-yl]-3-(4-methyl-1,2,4-triazol-3-yl)benzonitrile] | ≤ 200 | ≤ 200
20 | CC[C@H](O)CNCc1ccc2c(c1)C(=O)N(c1cc(-c3ccc(C#N)cc3-c3nncn3C)cc(C3CC3)n1)C2 [AJA-2, (S)-4-(2-Cyclopropyl-6-(6-(((2-hydroxybutyl)amino)methyl)-1-oxoisoindolin-2-yl)pyridin-4-yl)-3-(4-methyl-4H-1,2,4-triazol-3-yl)benzonitrile] | ≤ 200 | ≤ 200
21 | C[C@H]1CCCN(Cc2cc(F)c3c(c2)C(=O)N(c2cc(-c4ccc(C#N)cc4-c4nncn4C)cc(C4CC4)n2)C3)C1 [AKY-1, 4-[2-Cyclopropyl-6-(4-fluoro-6-{[(3S)-3-methylpiperidin-1-yl]methyl}-1-oxo-3H-isoindol-2-yl)pyridin-4-yl]-3-(4-methyl-1,2,4-triazol-3-yl)benzonitrile] | ≤ 200 | ≤ 200
22 | CN(Cc1cc(F)c2c(c1)C(=O)N(c1cc(-c3ccc(F)cc3-c3nncn3C)cc(C3CC3)n1)C2)CC1(O)CCC1 [AML-1, 2-{6-Cyclopropyl-4-[4-fluoro-2-(4-methyl-1,2,4-triazol-3-yl)phenyl]pyridin-2-yl}-4-fluoro-6-({[(1-hydroxycyclobutyl)methyl](methyl)amino}methyl)-3H-isoindol-1-one] | ≤ 200 | ≤ 200
23 | C[C@@H](NCC1CCC1)c1ccc2c(c1)C(=O)N(c1cc(-c3ccc(C#N)cc3-c3nncn3C)cc(C3CC3)n1)C2 [AKA-1, (R)-4-(2-(6-(1-((Cyclobutylmethyl)amino)ethyl)-1-oxoisoindolin-2-yl)-6-cyclopropylpyridin-4-yl)-3-(4-methyl-4H-1,2,4-triazol-3-yl)benzonitrile] | ≤ 200 | ≤ 200
24 | CC(NCC1CCC1)c1ccc2c(c1)C(=O)N(c1cc(-c3ccc(C#N)cc3-c3nncn3C)cc(C3CC3)n1)C2 (centres unmarked) [AJZ-1, 4-(2-(6-(1-((Cyclobutylmethyl)amino)ethyl)-1-oxoisoindolin-2-yl)-6-cyclopropylpyridin-4-yl)-3-(4-methyl-4H-1,2,4-triazol-3-yl)benzonitrile] | ≤ 200 | ≤ 200
25 | COC[C@H](C)NCc1ccc2c(c1)C(=O)N(c1cc(-c3ccc(C#N)cc3-c3nncn3C)cc(C3CC3)n1)C2 [AIR-2, (S)-4-(2-cyclopropyl-6-(6-(((1-methoxypropan-2-yl)amino)methyl)-1-oxoisoindolin-2-yl)pyridin-4-yl)-3-(4-methyl-4H-1,2,4-triazol-3-yl)benzonitrile] | ≤ 200 | ≤ 200
